Assays:
HT29 = assay: Cell viability MTS assay; type: cell-based, human
Method in brief: (§1)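 72 h compound exposure, 0.33% DMSO final; MTS 2 gm/L + PMS 7.67 mg/L final, 4 h; SDS 1.4% final; A490. IC50 vs DMSO-only wells, non-linear regression.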

MDA-MB-231 = assay: Cell viability MTS assay; type: cell-based, human
Method in brief: as §1

[1] = system: MDA-MB-231 cells or Paca-2 cells; assay: Cell survival in six-well plates, Wright-Giemsa stain (Example 77); type: cell-based; conditions: Homo sapiens; 0.1-2 μM, cultures observed 10-15 days; cell line of the IC50 not stated
Method: Exponentially growing MDA-MB-231 cells or Paca-2 cells were seeded at 1,000 cells per well in six-well plates and allowed to attach for 24 hours. MDA-MB-231 and Paca-2 cells were cultured in DMEM supplemented with 10% (v/v) fetal calf serum (FCS) and 5 ml Penicillin/Streptomycin at 37° C. in 5% CO2. MDA-MB-231 and Paca-2 were established estrogen receptor negative human breast cancer and pancreatic carcinoma cell lines, respectively. (±)-cis-3-(5,6-dihydro-4H-pyrrolo[3,2,1-ij]quinolin-1yl)-4(1H-indol-3-yl)pyrrolidine-2,5-dione or (±)-trans-3-(5,6-dihydro-4H-pyrrolo[3,2,1-ij]quinolin-1-yl)-4(1H-indol-3-yl)pyrrolidine-2,5-dione were each dissolved at a concentration of 10 mM in DMSO, and separately added to cells at a concentration of 0.1, 0.25, 0.5, 1 or 2 μM. Control plates received DMSO alone, at the same percentage of total culture volume as that administered in conjunction with the highest concentration of drug. Cell cultures were observed daily for 10-15 days, then fixed and stained with modified Wright-Giemsa stain (Sigma). Treatment with (±)-cis-3-(5,6-dihydro-4H-pyrrolo [3,2,1-ij]quinolin-1yl)-4(1H-indol-3-yl)pyrrolidine-2,5-dione or (±)-trans-3-(5,6-dihydro-4H-pyrrolo[3,2,1-ij]quinolin-1-yl)-4(1H-indol-3-yl)pyrrolidine-2,5-dione results in cell death of MDA-MB-231 cells or Paca-2 cells. See, e.g., FIG. 2.

[2] = system: Recombinant Protein Kinase C; assay: Protein Kinase C kinase reaction, Histone H1, autoradiography (Example 79); type: biochemical; conditions: 0.05, 0.5, or 10 μM, 15 minutes at room temperature
Method: Recombinant Protein Kinase C (Calbiochem) (100 ng) was incubated with (±)-cis-3-(5,6-dihydro-4H-pyrrolo[3,2,1-ij]quinolin-1yl)-4(1H-indol-3-yl)pyrrolidine-2,5-dione or (±)-trans-3-(5,6-dihydro-4H-pyrrolo[3,2,1-ij]quinolin-1-yl)-4(1H-indol-3-yl)pyrrolidine-2,5-dione at 0.05, 0.5, or 10 μM for 15 minutes at room temperature. Subsequently, a radioactive labeling mix in kinase buffer (20 mM Tris-HCl pH 7.5, 10 mM MgCl2) containing 20 μM ATP, 0.2 μCi/μl γ^32P-ATP, 0.2 μg/μl Histone H1 (Upstate) was added to each sample. The kinase reaction was carried out for 5 minutes at room temperature. Reaction products were analyzed by 12% SDS-PAGE and autoradiography.

[3] = system: MDA-MB-231 human breast cancer xenograft; assay: MDA-MB-231 xenograft, intraperitoneal 160 mg/kg (Example 81); type: in vivo, mice; conditions: 160 mg/kg intraperitoneally, q3d×10, lipiodol vehicle
Method: Athymic female nude mice (CRL:NU/NU-nuBR) were injected subcutaneously in the flank with MDA-MB-231 human breast cancer cells (8×10^6 cells/mouse). Prior to injection, MDA-MB-231 cells were cultured in DMEM (Invitrogen #11965-092) supplemented with 10% (v/v) heat inactivated fetal bovine serum (FBS), 1% Hepes buffer solution (Invitrogen #15630-080) and 1% Penicillin/Streptomycin (Invitrogen #15140-122) at 37° C. in 5% CO2. Tumors were allowed to grow to approximately 50 mm^3 in size. Animals were randomized into three groups of five animals per group. At day ten post injection, mice with established tumors were treated intraperitoneally with (±)-cis-3-(5,6-dihydro-4H-pyrrolo[3,2,1-ij]quinolin-1yl)-4(1H-indol-3-yl) pyrrolidine-2,5-dione (160 mg/kg), (±)-trans-3-(5,6-dihydro-4H-pyrrolo[3,2,1-ij]quinolin-1-yl)-4(1H-indol-3-yl)pyrrolidine-2,5-dione (160 mg/kg) administered in iodinated poppy seed oil (lipiodol) as the vehicle at 10 mg/ml, or vehicle control. Drug or vehicle was administered every three days for a total of ten doses (q3d×10). Tumor size was evaluated periodically during the study. For each subject, tumor volume was calculated using the formula (L×W^2)/2 where L and W were the length and width of the tumor, respectively. The arithmetic mean tumor volume was calculated for each treatment group+/−standard error of the mean (SEM). […]

[4] = system: MDA-MB-231 human breast cancer xenograft; assay: MDA-MB-231 xenograft, intraperitoneal 80 mg/kg (Example 82); type: in vivo, mice; conditions: 80 mg/kg intraperitoneally, 5 days on/2 off, four cycles, DMA/PEG 400
Method: Athymic female nude mice (CRL:NU/NU-nuBR) were injected subcutaneously in the flank with MDA-MB-231 human breast cancer cells (8×10^6 cells/mouse). Prior to injection, MDA-MB-231 cells were cultured in DMEM (Invitrogen #11965-092) supplemented with 10% (v/v) heat inactivated fetal bovine serum (FBS), 1% Hepes buffer solution (Invitrogen #15630-080) and 1% Penicillin/Streptomycin (Invitrogen #15140-122) at 37° C. in 5% CO2. Tumors were allowed to grow to approximately 50 mm^3 in size. Animals were randomized into three groups of eight animals per group. At day four post injection, mice with established tumors were treated intraperitoneally with (±)-Cis-3-(5,6-dihydro-4H-pyrrolo[3,2,1-ij]quinolin-1yl)-4(1H-indol-3-yl)pyrrolidine-2,5-dione (80 mg/kg), (±)-Trans-3-(5,6-dihydro-4H-pyrrolo[3,2,1-ij]quinolin-1-yl)-4(1H-indol-3-yl)pyrrolidine-2,5-dione (80 mg/kg) administered in DMA/PEG 400 (1:4 v/v) as the vehicle at 50 mg/ml, or vehicle control intraperitoneally. […] Tumor size was evaluated periodically during the study. For each subject, tumor volume was calculated using the formula (L×W^2)/2 where L and W were the length and width of the tumor, respectively. The arithmetic mean tumor volume was calculated for each treatment group+/−standard error of the mean (SEM). […]

A549 = assay: Cell viability MTS assay; type: cell-based, human; conditions: 72 hours with compound
Method in brief: as §1

HCT-116 = assay: Cell viability MTS assay; type: cell-based, human; conditions: 72 hours with compound
Method in brief: as §1

K562 = assay: Cell viability MTS assay; type: cell-based, human; conditions: 72 hours with compound
Method in brief: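 Cells are seeded and incubated 16-24 hours, then given compound for 72 hours at 0.33% final DMSO. MTS and PMS are added for 4 hours, followed by SDS to 1.4%, and absorbance is read at 490 nm. IC50 marks a 50% drop in viable cells relative to DMSO-only wells.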

MCF7 = assay: Cell viability MTS assay; type: cell-based, human; conditions: 72 hours with compound
Method in brief: as §1

NCI-H446 = assay: Cell viability MTS assay; type: cell-based, human; conditions: 72 hours with compound
Method in brief: as §1

NCI-H69 = assay: Cell viability MTS assay; type: cell-based, human; conditions: 72 hours with compound
Method in brief: as §1

NCI-H82 = assay: Cell viability MTS assay; type: cell-based, human; conditions: 72 hours with compound
Method in brief: as §1

PC-3 = assay: Cell viability MTS assay; type: cell-based, human; conditions: 72 hours with compound
Method in brief: as §1

SK-MEL-28 = assay: Cell viability MTS assay; type: cell-based, human; conditions: 72 hours with compound
Method in brief: as §1

SKOV-3 = assay: Cell viability MTS assay; type: cell-based, human; conditions: 72 hours with compound
Method in brief: as §1

MDA-MB-231 cells = assay: Colony counting, surviving fraction (Example 78); type: cell-based, human; conditions: two days incubation, colonies counted two weeks later; read-out: IC50 (surviving fraction equaled 50)
Method: MDA-MB-231 cells (ATCC# HTB-26), grown in DMEM plus 15% heat inactivated fetal bovine serum plus 10 mM HEPES pH 7.5, were plated in 60 mm plates (2×10^5 cells per plate). After two days candidate compounds in DMSO at various concentrations were diluted in media and added to individual plates such that the final DMSO concentration in the cell culture media was 0.1%. After two days incubation the culture was trypsinized, cells were washed with media, counted using a hemocytometer and 500 cells, including cell bodies, were plated in […] in media. Two weeks later the media was removed and the cell colonies were fixed with methanol for 10 minutes, stained with 1% crystal violet 10 minutes, washed with water and air dried. Cell colonies were visually counted when there were greater then 50 cells present per colony. Plating efficiency was defined as the average number of colonies formed divided by 500. The surviving fraction was defined as the plating efficiency of a candidate compound divided by the plating efficiency of DMSO multiplied by 100. For candidate compound titrations, the IC50 concentration was determined by fitting the equation y=AeBx to the data points and extrapolating the concentration where surviving fraction equaled 50. […]

[5] = Homo sapiens, HT-29, 72 hours with compound
[6] = Homo sapiens, MDA-MB-231, 72 hours with compound

O=C1NC(=O)[C@@H](c2cn3c4c(cccc24)CCC3)[C@H]1c1c[nH]c2ccccc12 (racemic) [(±)-Cis-3-(5,6-dihydro-4H-pyrrolo[3,2,1-ij]quinolin-1-yl)-4(1H-indol-3-yl)pyrrolidine-2,5-dione]
IC50 (HT29; [5]): 2.89 µM | IC50 (MDA-MB-231; [6]): 4.04 µM | IC50 [1]: 0.5 µM | Protein Kinase C kinase activity in comparison to carrier alone [2]: did not reduce kinase activity | reduction of normalized mean tumor volume compared to vehicle treated control [3]: 80.5% | reduction of mean tumor volume compared to vehicle treated control [4]: 73.4%

COc1cccc([C@@H]2C(=O)NC(=O)[C@H]2c2cn3c4c(cccc24)CCC3)c1 (racemic) [Example 68, (±)-Trans-3-(5,6-dihydro-4H-pyrrolo[3,2,1-ij]quinolin-1-yl)-4-(3-methoxyphenyl)pyrrolidine-2,5-dione]
IC50 (HT29; [5]): 3.06 µM | IC50 (MDA-MB-231; [6]): 14.7 µM | melting point: 87 to 91 °C

O=C1NC(=O)[C@@H](c2cn3c4c(cccc24)CCC3)[C@@H]1c1cccc(O)c1 (racemic) [Example 69, (±)-Trans-3-(5,6-dihydro-4H-pyrrolo[3,2,1-ij]quinolin-1-yl)-4-(3-hydroxyphenyl)pyrrolidine-2,5-dione]
IC50 (HT29; [5]): 55.4 µM | IC50 (MDA-MB-231; [6]): 65.9 µM | melting point: 108 to 110 °C

O=C1NC(=O)[C@@H](c2cn3c4c(cccc24)CCC3)[C@@H]1c1ccc(O)cc1 (racemic) [Example 72, (±)-Trans-3-(5,6-dihydro-4H-pyrrolo[3,2,1-ij]quinolin-1-yl)-4-(4-hydroxyphenyl)pyrrolidine-2,5-dione]
IC50 (HT29; [5]): > 100 µM | IC50 (MDA-MB-231; [6]): > 100 µM | melting point: 105 to 107 °C

O=C1NC(=O)[C@@H](c2cn3c4c(cccc24)CCC3)[C@@H]1c1c[nH]c2ccccc12 [(+)-3(S),4(R)-3-(5,6-dihydro-4H-pyrrolo[3,2,1-ij]quinolin-1-yl)-4(1H-indol-3-yl)pyrrolidine-2,5-dione]
IC50 (A549): 27.9 µM | IC50 (HCT-116): 14.4 µM | IC50 (HT29; 72 hours with compound): 30.1 µM | IC50 (K562): 4.52 µM | IC50 (MCF7): > 100 µM | IC50 (MDA-MB-231; 72 hours with compound): 26.8 µM | IC50 (NCI-H446): 8.55 µM | IC50 (NCI-H69): 10.5 µM | IC50 (NCI-H82): 9.83 µM | IC50 (PC-3): 18.7 µM | IC50 (SK-MEL-28): 25.5 µM | IC50 (SKOV-3): 4.45 µM | IC50 (MDA-MB-231 cells): 4.1 µM

COc1cccc(C2=C(c3cn4c5c(cccc35)CCC4)C(=O)NC2=O)c1 [Example 65, 3-(5,6-dihydro-4H-pyrrolo[3,2,1-ij]quinolin-1-yl)-4-(3-methoxyphenyl)-1H-pyrrole-2,5-dione]
IC50 (HT29; [5]): 35 µM | IC50 (MDA-MB-231; [6]): 60.8 µM | melting point: 99 to 101 °C

O=C1NC(=O)C(c2cn3c4c(cccc24)CCC3)=C1c1ccc(OCc2ccccc2)cc1 [Example 66, 3-[4-(benzyloxy)phenyl]-4-(5,6-dihydro-4H-pyrrolo[3,2,1-ij]quinolin-1-yl)-1H-pyrrole-2,5-dione]
IC50 (HT29; [5]): > 100 µM | IC50 (MDA-MB-231; [6]): > 100 µM | melting point: 262 to 265 °C

From US7713969B2, “Compositions and methods for treatment of cancer” (ArQule, Inc., priority 2005, dated 2010)
